Experiments:
[1] = MBT absorption of PA and HA prior to Orlistat in fifteen healthy subjects; assay type: in vivo, human; details: PA 2.5 grams and THA 8.0 grams, FIG. 10, 11
From the text: Fifteen healthy adult subject volunteers (9 women) 18 to 50 years of age were recruited through local advertisements. Exclusion criteria included: any chronic illness known to affect nutrient absorption, body mass index (BMI) of less than 21 or greater than 30 kg/m^2 (i.e., outside of generally accepted healthy adult ranges), therapy with lipid lowering drugs, diabetes mellitus (NIDDM, IDDM) and disorders associated with altered energy metabolism (e.g., hypothyroidism). This adult age range was selected because Orlistat is FDA approved in adults. In addition, adults are able to plan the experimental days for cooperation with four days of the research study diet, outpatient 72-hour stool collection and phlebotomy requirements. […]
Subjects underwent a 12-hour fast from 2100 hours on day #1 of the study. […] Upon arrival at the study center on the morning of day #2, subjects had their weight and height measured, and an experienced phlebotomist inserted a self-retaining intravenous catheter with a heparin lock for serial blood sampling. […] The number and timing of blood samples was determined by the experiments in Example 1, and was expected to be six or fewer samples over an eight-hour or less time period. […]

[2] = MBT serum levels of PA and HA in subjects with CF and pancreatic insufficiency on and off pancreatic enzymes; assay type: in vivo, human
Experimental: (§1) Both whole post-absorptive serum and isolated chylomicron fractions of the serum are analyzed for fatty acid composition. Chylomicrons are isolated from plasma by centrifugation at d=1.006 g/ml for 30 minutes at 26,000 g (Hatch, F. T., et al., 1968; Adv. Lipid Res., 6:1-68). Total lipids are extracted from each specimen following the method of Bligh and Dyer (Bligh, E. G., et al., 1959; Can. J. Biochem., 37:911-917). Following transmethylation of the lipid extracts using BF3-methanol, fatty acid composition is determined using gas-liquid chromatographic (GLC) analysis using a Hewlett Packard GLC equipped with a flame ionization detector, an automatic 7673 sampler and […]×0.25 mm ID column composed of a 0.20 micron film of SP-2560 (Supelco, Bellefonte, Pa.) (Morrison, W., et al., 1964; J. Lipid Res. 5:600-608). The temperature is programmed to change from 140° C. to 240° C. at a rate of 4° C./minute. At the time of extraction, heptadecanoic methyl ester is added as an internal standard.
Subjects with CF and pancreatic insufficiency currently treated with pancreatic enzymes, aged greater than 8 years were recruited. Exclusion criteria included: forced expiratory volume of the lungs at 1 second (FEV1) <40%, a history of fibrosing colonopathy or significant bowel resection (>10 cm), mental retardation, significant neurological deficit, developmental disability and autism. Subjects are in their usual state of good health. This age range was selected because it includes children during active growth where information regarding degree of malabsorption leads to improved nutritional intervention and pancreatic enzyme therapy. Also, children greater than 8 years of age are mature enough to provide assent and feedback concerning acceptability and tolerance of the MBT.
In the experiments shown in FIGS. 12 through 15, three subjects with CF were given either 30 mg/kg PA and 60 mg/kg THA (2 subjects) or 30 mg/kg PA and 90 mg/kg THA (1 subject) in a digestible composition consisting of a liquid breakfast shake after a 12 hour fast. The subjects were tested while they were taking their usual doses of pancreatic enzymes and then were tested again (more than one week later) when they were not taking pancreatic enzymes. Blood was sampled at baseline and then at hourly intervals from 2 to 8 hours and then sampled again at 24 hours. Subjects were fed a prepared lunchtime meal with a known quantity of fat (80 grams). The individual results for fat absorption for the 3 subjects with CF on enzymes are presented in FIG. 12 for PA and FIG. 13 for HA. For the same 3 subjects with CF off enzymes, the results for fat absorption are presented in FIG. 14 for PA and FIG. 15 for HA.
Additional experiments were performed on six subjects with CF either on or off pancreatic enzyme treatment. The serum levels of PA and HA in these six subjects on and off pancreatic enzyme treatment are presented in FIG. 16 anf FIG. 17, respectively.

[3] = Malabsorption Blood Test (MBT): serum levels of PA and HA after oral PA and THA test breakfast meal in healthy control subjects; assay type: in vivo, human
Experimental: as §1
Healthy control subjects between 18 and 50 years of age were selected. Exclusion criteria included: any chronic illness known to affect nutrient absorption, body mass index (BMI) <21 or >30 kg/m^2 (generally accepted healthy adult ranges), therapy with lipid lowering drugs, diabetes mellitus (NIDDM and IDDM), disorders associated with altered energy metabolism (e.g., hypothyroidism) and disinterest in participating in all three dosing experiments. This adult age range was selected for several reasons: (a) adult subjects are likely to remain committed to all three components of the study; (b) adults will understand the need to provide reliable feedback on taste and tolerance of the test breakfast meal and the entire malabsorption test procedure; and (c) adult subjects are able to plan the experimental day for full cooperation with the multiple phlebotomy events from 0700 to 1500 hours.
Upon arrival at the study center, subjects had their weight and height measured and an experienced phlebotomist inserted a self-retaining intravenous catheter with a heparin lock for serial blood sampling. After initially drawing 2 milliliters of blood into a sterile syringe, the experimental blood sample (2 milliliters) was drawn and immediately stored in a 4-milliliter serum separator tube. Thereafter, the initial 2 milliliters of blood was infused back into the catheter followed by 2 milliliters of heparin flush. After the baseline blood samples were obtained, the subjects drank an approximately 8 to 12 ounce liquid test breakfast meal. This meal contained one to three doses of PA and THA in a random distribution. Subjects were asked to consume the test breakfast meal within five minutes. Thereafter, serial blood samples were obtained at regular intervals over a period ranging from 30 minutes to 24 hours. During the initial eight-hour period, subjects were permitted to ingest non-caloric and non-caffeinated beverages. A study protocol lunch of known fat content was provided and actual food intake was recorded. Ambulation was limited to maintain adherence to the 30 to 60 minute intervals in the blood sampling schedule. After completion of the blood sampling, the catheter was removed, a snack was offered, and the subjects were encouraged to consume a full meal. The lipid doses (mg/kg) of PA and THA used in this experiment were based on doses 10-fold higher than similar fats used to correct essential fatty acid deficiency in cystic fibrosis, and previous studies which used ^13C […] to qualitatively assess fat malabsorption in pancreatic disease (Rosenlund, M. L., et al., 1977;Pediatrics, 59:428-32; Wutzke, K. D., et al., 1999; J. Pediatr. Gastroenterol. Nutr., 29:148-54).
Four healthy control subjects were administered a dose of 30 mg/kg PA and 30 mg/kg THA in the digestible composition (a liquid breakfast shake) after a 12-hour fast. Blood was drawn at baseline before consumption of the shake and then every 30 minutes thereafter until hour 6. […]

pancreatic lipase = biological target: T1, pancreatic lipase (Homo sapiens, UniProt P16233); test: MBT before and after Orlistat treatment in healthy adult subjects (pharmaceutically induced fat malabsorption); assay type: in vivo
T1 construct: from tissue; host or cells: in vivo: endogenous pancreatic secretion in the small intestine of healthy adult subjects
T1 sequence (P16233 17-465): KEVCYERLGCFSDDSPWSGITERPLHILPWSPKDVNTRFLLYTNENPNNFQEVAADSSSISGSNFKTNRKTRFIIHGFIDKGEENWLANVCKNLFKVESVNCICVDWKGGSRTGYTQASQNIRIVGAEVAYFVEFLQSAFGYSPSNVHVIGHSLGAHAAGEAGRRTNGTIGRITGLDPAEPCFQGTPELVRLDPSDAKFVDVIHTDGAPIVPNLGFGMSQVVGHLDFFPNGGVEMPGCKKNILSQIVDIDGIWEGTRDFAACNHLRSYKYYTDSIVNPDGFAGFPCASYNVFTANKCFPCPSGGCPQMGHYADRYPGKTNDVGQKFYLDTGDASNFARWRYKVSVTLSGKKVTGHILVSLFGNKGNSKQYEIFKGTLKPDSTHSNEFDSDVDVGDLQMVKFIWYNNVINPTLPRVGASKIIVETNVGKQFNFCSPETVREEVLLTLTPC
T1 sequence (P04118 23-112 partner): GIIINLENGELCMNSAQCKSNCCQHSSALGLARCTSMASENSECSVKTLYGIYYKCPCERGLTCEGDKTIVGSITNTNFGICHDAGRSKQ
Experimental: Analysis of the baseline and subsequent half-hourly or hourly serum samples taken for up to eight hours for the three doses of pentadecanoic acid (PA) and triglyceride containing heptadecanoic fatty acids (THA) are used to create time-dependent measured and normalized measured (see below) dosage response curves. Each concentration is analyzed independently for each subject and as a complete set for all subjects to determine the rates of absorption, distribution, and elimination for each of the measured fatty acids PA and heptadecanoic acid (HA) and the pancreatic enzyme activity for the hydrolysis of THA. The simplest model to determine a coefficient of fat absorption and an index of pancreatic enzyme activity is derived from the set of normal subjects and subsequently applied to subjects before and during therapy with a pancreatic enzyme inhibitor (Orlistat). Finally, this model is applied to subjects with CF receiving various levels of enzyme therapy to determine their coefficient of fat absorption and their index of enzymatic activity. In the simplest possible situation, the measured levels of both HA and PA are dose independent and reach an early and prolonged steady state in either whole plasma or in the chylomicron fraction. In that case, the normalized PA and HA can be compared against a CFA measured using the conventional standard 72 hour stool and diet collection method for the same patient and an appropriate conversion factor (which may be dependent upon the BMI) can be determined from the data. The ratio of the normalized HA to the normalized PA is defined as an index reflecting the pancreatic enzymatic activity profile during the absorption phase. The data is analyzed for any dependence of this index upon the patient's age or BMI. The comparisons before and after therapy with Orlistat are expected to reflect a decrease in this index of approximately 70%. […]

[4] = subjects with CF on pancreatic enzymes
[5] = four healthy control subjects, 30 mg/kg PA and 60 mg/kg THA, FIG. 3A, 4, 5A
[6] = four healthy control subjects, 30 mg/kg PA and either 60 or 90 mg/kg THA oral, FIG. 1 model

SMILES	average absorption [1]	serum level response ([2]; subjects with CF off pancreatic enzymes)	delay before serum levels increased [2, 4]	time of peak serum level [2, 4]	serum levels compared with healthy control subjects ([2]; subjects with CF taking pancreatic enzymes)	delay before rise in serum concentration ([3]; four healthy control subjects, 30 mg/kg PA and 30 mg/kg THA, liquid breakfast shake after 12-hour fast, FIG. 2)	time at which increase in serum level is evident / begins [3, 5]	time of peak serum level [3, 5]	time of peak serum level ([3]; four healthy control subjects, 30 mg/kg PA and 90 mg/kg THA, FIG. 6-8)	peak serum level ([3]; four healthy control subjects, 30 mg/kg PA and either 60 or 90 mg/kg THA oral at baseline, FIG. 1 model)	time of peak serum level [3, 6]	time post-dose before serum level rises [3, 6]	concentration at 8 h ([3]; human, serum, four healthy control subjects, 30 mg/kg PA and either 60 or 90 mg/kg THA oral, FIG. 1 model, read-out: serum level by eight hours post dose)	time up to which serum response continued to increase (sharp decrease after) ([3]; six healthy volunteers, PA 2.5 grams and THA 5.0 or 8.0 grams, FIG. 5B)	expected decrease in index of pancreatic enzymatic activity (ratio of normalized HA to normalized PA) after therapy with Orlistat (pancreatic lipase; comparison before and after therapy with Orlistat, expected value of the model)	expected estimated pancreatic enzyme activity in the presence of Orlistat, relative to normal (unsuppressed) activity (pancreatic lipase; fraction of absorbed HA versus fraction of absorbed PA, expected value of the model)	serum response of PA prior to versus after receiving Orlistat (pancreatic lipase; healthy subjects, Orlistat 240 mg TID, PA 2.5 grams and THA 8.0 grams, FIG. 9)
CCCCCCCCCCCCCCCCC(=O)O [HA, heptadecanoic acid]	approximately 45%	no increase in serum levels	2 h	approximately 6 hours	lower	3 to 4 h	3 h	6 h	6 h	approximately 3 mg/dL	6 h	two	~10000 ng/mL	6 h	–	–	–
CCCCCCCCCCC[C@@H](C[C@@H]1OC(=O)[C@H]1CCCCCC)OC(=O)[C@H](CC(C)C)NC=O [Orlistat]	–	–	–	–	–	–	–	–	–	–	–	–	–	–	approximately 70%	about 70%	similar
